Data from patent US20260137706A1, “METHODS OF TREATING INFLAMMATORY DISEASES” (INTERLINE THERAPEUTICS, INC., priority 2023, published 2026).
pIC50: −log10 of the molar value.

Legend:
[1] = system: NF-κB pathway (SEAP) in THP1-Dual cells; assay: THP-1 Dual cell SEAP assay (L18-MDP stimulated); assay type: cell-based; conditions: Homo sapiens, THP1-Dual, read-out: NF-κB THP1 IC50 bin
Experimental: THP1-Dual™ cells (InvivoGen Cat #thpd-nfis) allow simultaneous assessment of the NF-κB pathway, by monitoring the activity of secreted embryonic alkaline phosphatase (SEAP) as well as the IRF pathway, by assessing the activity of a secreted luciferase (Lucia). Cells were cultured according to manufacturers' recommendations. For the assay, cell concentration was adjusted to 7.14×10^5 cells/mL in assay media (RPMI 1640, 2 mM L-Glutamine, 25 mM HEPES, 10% fetal bovine serum (heat-inactivated for 30 min at 56° C.), Pen-Strep (100 U/mL)) and 35 µL of cell suspension (˜25,000 cells) per well were added to a flat bottom 384-well plate (white opaque). Plate was centrifuged at 300 g for 2 min, compounds were added in serial dilution series according to the plate layout (volumes ˜500 nL-0.0152 nL) and plate was incubated at 37° C. in 5% CO2 for 30 min. Using assay media, a L18-MDP stock solution, that results in a final concentration of 10 ng/mL L18-MDP in each well when adding 15 μL to each well, was prepared. 15 μL of L18-MDP stock solution was added to each well, while 15 μL of assay media was added to the negative control wells. Plates were subsequently incubated at 37° C. in 5% CO2 overnight (20-24 h).
For the SEAP assay: without disturbing the cells at the bottom of the well, 15 μL supernatant was transferred to a clear 384-well flat bottom plate and 35 μL QUANTI-Blue Solution per well was added. Following a 2 h incubation at 37° C., the optical density (OD) was measured at 620-655 nm using a microplate reader (PheraStar FS microplate reader with protocol for OD 620-655 nm).
Values of media-only wells were subtracted and % inhibition for each compound concentration relative to the DMSO/L18-MDP-treated controls was calculated. Inhibition values+/−SD were fitted by non-linear regression using Prism software (GraphPad PRISM Software) to calculate IC50 values.

[2] = target: T1, binding of His-XIAP(BIR2)-avi fusion protein to GST-RIPK2 fusion protein (RIPK2/XIAP) (Homo sapiens, UniProt O43353); assay: RIPK2-XIAP binding competition PPI assay (TR-FRET); conditions: RIPK2/XIAP binding competition PPI assay; for Emax: Amax, read-out: PPI Amax bin; for pIC50: read-out: PPI IC50 bin
T1 construct: made in house; host or cells: baculovirus infected Sf9 cells
T1 sequence (O43353 1-310 limits assumed): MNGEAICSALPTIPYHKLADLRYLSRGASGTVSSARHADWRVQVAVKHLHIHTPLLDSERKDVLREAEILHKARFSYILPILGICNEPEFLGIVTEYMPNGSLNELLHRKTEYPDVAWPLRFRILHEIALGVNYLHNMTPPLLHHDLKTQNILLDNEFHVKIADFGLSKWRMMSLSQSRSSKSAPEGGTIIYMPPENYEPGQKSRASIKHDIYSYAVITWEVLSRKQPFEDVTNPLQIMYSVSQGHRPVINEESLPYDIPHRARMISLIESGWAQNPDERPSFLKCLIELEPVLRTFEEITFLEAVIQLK
From the text: The ability of selected compounds of Formula (I) to inhibit the binding of an His-XIAP(BIR2)-avi fusion protein to a GST-RIPK2 fusion protein was quantified employing the TR-FRET-based competition assay as described in the following paragraphs.
Recombinant fusion protein of N-terminal Glutathione-S-Transferase (GST) and a fragment of human RIPK2 (amino acids 1-310 of accession number 043353), expressed in baculovirus infected Sf9 cells, purified via glutathione affinity chromatography, was used as GST-RIPK2 fusion protein. Recombinant fusion protein of N-terminal 6×Histidine (His), a fragment of human XIAP (amino acids 152-231 of accession number P98170), and C-terminal avi tag, expressed in baculovirus infected Sf9 cells, purified via Nickel NTA affinity chromatography, was used as the His-XIAP(BIR2)-avi fusion protein.
For the assay, a working solution of 1 nM GST-RIPK2, 25 nM His-XIAP(BIR2)-avi, 6 nM Anti-His-XL665 […] (Revvity Catalogue No. 61HISXLB), and 0.5 nM Anti-GST-Tb (Revvity Catalogue No. 61GSTTLB) in 25 mM Tris-HCl 7.5, 0.5 mM ethylene glycol-bis(2-aminoethylether)-N,N,N′,N′-tetraacetic acid (EGTA), 10 mM magnesium chloride (MgCl2), 2.5 mM dithiothreitol (DTT), 0.01% (w/v) bovine serum albumin (BSA), 0.005% (w/v) Pluronic F-127 (Sigma), 0.5 mM sodium ortho-vanadate, 5 mM β-Glycerophosphate disodium salt hydrate (BGP) was prepared. 50 nL of a 100-fold concentrated solution of each test compound in DMSO was dispensed via acoustic dispensing into a white low volume 384-well microtiter plate (Perkin Elmer Catalogue No. 6008280). Subsequently, 5 μL of the assay working solution were added.
The resulting mixture was incubated 120 min at 23° C. Subsequently, the amount of complex formed by the GST-RIPK2, XIAP(BIR2)-avi, Anti-His-XL665, and Anti-GST-Tb was evaluated by measurement of the resonance energy transfer from the Tb-cryptate to the XL665. Therefore, the fluorescence emissions at 520 nm and 665 nm after excitation at 337 nm were measured in a TR-FRET reader, e.g. a Pherastar FS (BMG Labtechnologies, Offenburg, Germany) or an Envision (PerkinElmer). The ratio of the emissions at 665 nm and at 520 nm was taken as the measure of the amount of the complex. The data were normalized (assay reaction without inhibitor=0% activity, 50 nM of GSK583=−100% activity).
For the RIPK2/XIAP binding competition PPI assay Amax values, “A” denotes an Amax of ≥80%; “B” denotes an Amax of 80%>B≥55; “C” denotes an Amax of 55%>C>30; and “D” denotes an Amax of ≤30%.

SMILES	pIC50 [1]	Emax [2] [%]	pIC50 [2]
COc1cc2ncc(-c3cc(NS(=O)(=O)c4cnn(C)c4)c(OC)c(OC)c3)n2cc1N1CC2(COC2)CC1=O [Example 271, N-(2,3-dimethoxy-5-(7-methoxy-6-(7-oxo-2-oxa-6-azaspiro[3.4]octan-6-yl)imidazo[1,2-a]pyridin-3-yl)phenyl)-1-methyl-1H-pyrazole-4-sulfonamide]	< 6.00	> 80	7.70 to 8.60
CC(C)(C)S(=O)(=O)c1cn2c(-c3cc(F)c(N)nc3F)cnc2cc1NCCO [Example 272, 2-((3-(6-amino-2,5-difluoropyridin-3-yl)-6-(tert-butylsulfonyl)imidazo [1,2-a]pyridin-7-yl)amino)ethan-1-ol]	6.60 to 7.30	> 80	8.60 to 9.00
COc1cc2ncc(-c3cc(NS(=O)(=O)c4cnn(C)c4)c(OC)c(OC)c3)n2cc1N1CCCC1=O [Example 273, N-(2,3-dimethoxy-5-(7-methoxy-6-(2-oxopyrrolidin-1-yl)imidazo[1,2-a]pyridin-3-yl)phenyl)-1-methyl-1H-pyrazole-4-sulfonamide]	6.00 to 6.60	> 80	8.60 to 9.00
COc1ccc(-c2cnc3cc(OC)c(S(=O)(=O)C(C)(C)C)cn23)cc1NS(=O)(=O)c1cnn(C)c1 [Example 282, N-(5-(6-(tert-butylsulfonyl)-7-methoxyimidazo[1,2-a]pyridin-3-yl)-2-methoxyphenyl)-1-methyl-1H-pyrazole-4-sulfonamide]	> 7.30	> 80	> 9.00
COc1cc2ncc(-c3cc(Cl)c(OC)c(NS(=O)(=O)c4cnn(C)c4)c3)n2cc1S(=O)(=O)C(C)(C)C [Example 283, N-(5-(6-(tert-butylsulfonyl)-7-methoxyimidazo[1,2-a]pyridin-3-yl)-3-chloro-2-methoxyphenyl)-1-methyl-1H-pyrazole-4-sulfonamide]	> 7.30	> 80	> 9.00
COc1cc2ncc(-c3cc(F)cc(NS(=O)(=O)c4cnn(C)c4)c3)n2cc1S(=O)(=O)C(C)(C)C [Example 284, N-(3-(6-(tert-butylsulfonyl)-7-methoxyimidazo[1,2-a]pyridin-3-yl)-5-fluorophenyl)-1-methyl-1H-pyrazole-4-sulfonamide]	6.60 to 7.30	> 80	> 9.00
COc1cc(NS(=O)(=O)c2cnn(C)c2)cc(-c2cnc3cc(OC)c(S(=O)(=O)C(C)(C)C)cn23)c1 [Example 285, N-(3-(6-(tert-butylsulfonyl)-7-methoxyimidazo[1,2-a]pyridin-3-yl)-5-methoxyphenyl)-1-methyl-1H-pyrazole-4-sulfonamide]	> 7.30	> 80	> 9.00
COc1cc2ncc(-c3cc(C)c(OC)c(NS(=O)(=O)c4cnn(C)c4)c3)n2cc1S(=O)(=O)C(C)(C)C [Example 286, N-(5-(6-(tert-butylsulfonyl)-7-methoxyimidazo[1,2-a]pyridin-3-yl)-2-methoxy-3-methylphenyl)-1-methyl-1H-pyrazole-4-sulfonamide]	6.60 to 7.30	> 80	> 9.00
COc1cc2ncc(-c3cc(F)c(OC)c(NS(=O)(=O)c4cnc(C)s4)c3)n2cc1S(=O)(=O)C(C)(C)C [Example 287, N-(5-(6-(tert-butylsulfonyl)-7-methoxyimidazo[1,2-a]pyridin-3-yl)-3-fluoro-2-methoxyphenyl)-2-methylthiazole-5-sulfonamide]	6.60 to 7.30	55 to 80	> 9.00
COc1cc2ncc(-c3cc(F)c(OC)c(NS(=O)(=O)c4cc(C)no4)c3)n2cc1S(=O)(=O)C(C)(C)C [Example 288, N-(5-(6-(tert-butylsulfonyl)-7-methoxyimidazo[1,2-a]pyridin-3-yl)-3-fluoro-2-methoxyphenyl)-3-methylisoxazole-5-sulfonamide]	< 6.00	< 30	< 7.70
COc1cc2ncc(-c3cc(F)c(OC)c(NS(=O)(=O)c4cc(C)ns4)c3)n2cc1S(=O)(=O)C(C)(C)C [Example 289, N-(5-(6-(tert-butylsulfonyl)-7-methoxyimidazo[1,2-a]pyridin-3-yl)-3-fluoro-2-methoxyphenyl)-3-methylisothiazole-5-sulfonamide]	6.60 to 7.30	30 to 55	> 9.00
COc1cc2ncc(-c3cc(F)c(OC)c(NS(=O)(=O)c4cnc(C)o4)c3)n2cc1S(=O)(=O)C(C)(C)C [Example 290, N-(5-(6-(tert-butylsulfonyl)-7-methoxyimidazo[1,2-a]pyridin-3-yl)-3-fluoro-2-methoxyphenyl)-2-methyloxazole-5-sulfonamide]	< 6.00	< 30	< 7.70
COc1cc2ncc(-c3cc(F)c(OC)c(NS(=O)(=O)c4csc(C)n4)c3)n2cc1S(=O)(=O)C(C)(C)C [Example 291, N-(5-(6-(tert-butylsulfonyl)-7-methoxyimidazo[1,2-a]pyridin-3-yl)-3-fluoro-2-methoxyphenyl)-2-methylthiazole-4-sulfonamide]	> 7.30	55 to 80	> 9.00
COc1cc2ncc(-c3cc(F)c(OC)c(NS(=O)(=O)c4cc(C)sn4)c3)n2cc1S(=O)(=O)C(C)(C)C [Example 292, N-(5-(6-(tert-butylsulfonyl)-7-methoxyimidazo[1,2-a]pyridin-3-yl)-3-fluoro-2-methoxyphenyl)-5-methylisothiazole-3-sulfonamide]	6.60 to 7.30	30 to 55	> 9.00
COc1cc2ncc(-c3cc(F)c(OC)c(NS(=O)(=O)c4coc(C)n4)c3)n2cc1S(=O)(=O)C(C)(C)C [Example 293, N-(5-(6-(tert-butylsulfonyl)-7-methoxyimidazo[1,2-a]pyridin-3-yl)-3-fluoro-2-methoxyphenyl)-2-methyloxazole-4-sulfonamide]	> 7.30	30 to 55	> 9.00
COc1cc2ncc(-c3cccc(NS(=O)(=O)c4cnn(C)c4)c3)n2cc1S(=O)(=O)C(C)(C)C [Example 294, N-(3-(6-(tert-butylsulfonyl)-7-methoxyimidazo[1,2-a]pyridin-3-yl)phenyl)-1-methyl-1H-pyrazole-4-sulfonamide]	6.60 to 7.30	> 80	> 9.00
CC(=O)COc1cc2ncc(-c3cc(Cl)c(N)nc3F)n2cc1S(=O)(=O)C(C)(C)C [Example 300, 1-((3-(6-amino-5-chloro-2-fluoropyridin-3-yl)-6-(tert-butylsulfonyl)imidazo[1,2-a]pyridin-7-yl)oxy)propan-2-one]	6.00 to 6.60	> 80	7.70 to 8.60
